Test results taken from ChEMBL document CHEMBL1201862, “PubChem BioAssay data set” (2004).
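Where inhibition never reached the appropriate level, the endpoint shown equals the highest concentration tested. Otherwise, values were interpolated linearly from a five-concentration, 48-hour dose response in 96-well plates. Here, GI50 denotes the concentration required for 50% inhibition of growth.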 Calls of active or inactive are those of the source. Cut-off read from the data, not from the text of the source: active = GI50 up to about 1.1 µM and inactive = higher.

Columns and labels:
Assay in all cases: inhibition of tumour cell growth, NCI panel, 48 h
HCT-116 = tested on: HCT-116
SF-295 = tested on: SF-295
U-251 = tested on: U-251
OVCAR-5 = tested on: OVCAR-5
Malme-3M = tested on: Malme-3M
HCT-15 = tested on: HCT-15
SNB-19 = tested on: SNB-19
UACC-257 = tested on: UACC-257
M14 = tested on: M14
IGROV-1 = tested on: IGROV-1
HT-29 = tested on: HT-29
TK-10 = tested on: TK-10
LOX IMVI = tested on: LOX IMVI
SK-MEL-2 = tested on: SK-MEL-2
MOLT-4 = tested on: MOLT-4
SK-MEL-28 = tested on: SK-MEL-28
K562 = tested on: K562
SW-620 = tested on: SW-620
CCRF-CEM = tested on: CCRF-CEM

SMILES	GI50 (HCT-116)	GI50 (SF-295)	GI50 (U-251)	GI50 (OVCAR-5)	GI50 (Malme-3M)	GI50 (HCT-15) [µM]	GI50 (SNB-19)	GI50 (UACC-257)	GI50 (M14)	GI50 (IGROV-1)	GI50 (HT-29)	GI50 (TK-10)	GI50 (LOX IMVI)	GI50 (SK-MEL-2)	GI50 (MOLT-4)	GI50 (SK-MEL-28)	GI50 (K562)	GI50 (SW-620)	GI50 (CCRF-CEM)
CC(C)(C)OCC1NC(=O)[C@@H]2Cc3c([nH]c4ccccc34)C(c3ccccc3)N2C1=O (stereo not given in full)	> 50 µM (inactive)	> 50 µM (inactive)	> 50 µM (inactive)	> 50 µM (inactive)	> 50 µM (inactive)	> 50	> 50 µM (inactive)	> 50 µM (inactive)	> 50 µM (inactive)	> 50 µM (inactive)	> 50 µM (inactive)	> 50 µM (inactive)	> 50 µM (inactive)	> 50 µM (inactive)	16.2 µM (inactive)	> 50 µM (inactive)	> 30.1 µM (inactive)	> 50 µM (inactive)	> 50 µM (inactive)
O=[N+]([O-])c1cccc(CSc2nc(O)c3nc[nH]c3n2)c1	> 100 µM (inactive)	> 100 µM (inactive)	> 100 µM (inactive)	> 100 µM (inactive)	> 100 µM (inactive)	> 100	> 100 µM (inactive)	> 100 µM (inactive)	> 100 µM (inactive)	> 100 µM (inactive)	> 100 µM (inactive)	> 100 µM (inactive)	> 100 µM (inactive)	> 100 µM (inactive)	> 100 µM (inactive)	> 100 µM (inactive)	78.2 µM (inactive)	> 100 µM (inactive)	9.46 µM (inactive)
Cc1cccc2c1C(=O)/C(=C/c1ccccc1C(=O)O)C2	98.6 µM (inactive)	> 100 µM (inactive)	> 100 µM (inactive)	> 100 µM (inactive)	> 100 µM (inactive)	> 100	> 100 µM (inactive)	> 100 µM (inactive)	> 100 µM (inactive)	> 100 µM (inactive)	> 100 µM (inactive)	> 100 µM (inactive)	> 100 µM (inactive)	> 100 µM (inactive)	> 100 µM (inactive)	> 100 µM (inactive)	> 100 µM (inactive)	> 100 µM (inactive)	> 100 µM (inactive)
CC(=O)Nc1n[n+]([O-])c2cc(C)ccc2[n+]1[O-]	2.08 µM (inactive)	2.5 µM (inactive)	2.92 µM (inactive)	12 µM (inactive)	3.18 µM (inactive)	1.7	4.98 µM (inactive)	4.78 µM (inactive)	2.42 µM (inactive)	1.48 µM (inactive)	2.52 µM (inactive)	22.8 µM (inactive)	2.4 µM (inactive)	3.81 µM (inactive)	1.49 µM (inactive)	17 µM (inactive)	1.94 µM (inactive)	2.41 µM (inactive)	2.05 µM (inactive)
CCCCCCCCC(C)CCCCCCCCC(=O)OCC(COP(=O)([O-])OCC[N+](C)(C)C)OC(=O)CCCCCCCCC(C)CCCCCCCC (stereo not given)	> 100 µM (inactive)	> 100 µM (inactive)	> 100 µM (inactive)	> 100 µM (inactive)	> 100 µM (inactive)	> 100	> 100 µM (inactive)	> 100 µM (inactive)	> 100 µM (inactive)	> 100 µM (inactive)	> 100 µM (inactive)	> 100 µM (inactive)	> 100 µM (inactive)	> 100 µM (inactive)	> 100 µM (inactive)	> 100 µM (inactive)	> 100 µM (inactive)	> 100 µM (inactive)	> 100 µM (inactive)
O=C(O)[C@H](CCC[C@H]1C(=O)O[C@H](c2ccccc2)[C@H](c2ccccc2)N1C(=O)OCc1ccccc1)N[C@@H](c1ccccc1)[C@H](O)c1ccccc1	20.8 µM (inactive)	28.2 µM (inactive)	16 µM (inactive)	38.4 µM (inactive)	21.2 µM (inactive)	> 100	30.3 µM (inactive)	39.7 µM (inactive)	> 100 µM (inactive)	42.8 µM (inactive)	28.6 µM (inactive)	40.7 µM (inactive)	22.9 µM (inactive)	20 µM (inactive)	24.3 µM (inactive)	19.8 µM (inactive)	36.8 µM (inactive)	25.1 µM (inactive)	20 µM (inactive)
COC(=O)c1sc2c(Cl)c(Cl)sc2c1Cl	> 100 µM (inactive)	77.4 µM (inactive)	97.5 µM (inactive)	> 100 µM (inactive)	> 100 µM (inactive)	> 100	> 100 µM (inactive)	> 100 µM (inactive)	> 100 µM (inactive)	> 100 µM (inactive)	> 100 µM (inactive)	24.2 µM (inactive)	> 100 µM (inactive)	> 100 µM (inactive)	> 100 µM (inactive)	> 100 µM (inactive)	> 100 µM (inactive)	> 100 µM (inactive)	> 100 µM (inactive)
O=C1NC(O)c2ccccc2O1 (stereo not given)	> 100 µM (inactive)	> 100 µM (inactive)	> 100 µM (inactive)	> 100 µM (inactive)	> 100 µM (inactive)	> 100	> 100 µM (inactive)	> 100 µM (inactive)	> 100 µM (inactive)	> 100 µM (inactive)	> 100 µM (inactive)	> 100 µM (inactive)	> 100 µM (inactive)	> 100 µM (inactive)	> 100 µM (inactive)	> 100 µM (inactive)	> 100 µM (inactive)	> 100 µM (inactive)	> 100 µM (inactive)
COC(=O)c1ccc(NCC2=CC(=O)c3ccccc3C2=O)cc1	17.8 µM (inactive)	16.9 µM (inactive)	22.9 µM (inactive)	21.6 µM (inactive)	5.81 µM (inactive)	14.5	31.4 µM (inactive)	14.3 µM (inactive)	17.8 µM (inactive)	12.2 µM (inactive)	25.7 µM (inactive)	22.2 µM (inactive)	8.18 µM (inactive)	18.9 µM (inactive)	3.01 µM (inactive)	17.5 µM (inactive)	3.44 µM (inactive)	22.2 µM (inactive)	2.04 µM (inactive)
CC(C)(C)c1cc(-c2cc(C(C)(C)C)[nH]n2)[nH]n1	> 100 µM (inactive)	> 100 µM (inactive)	> 100 µM (inactive)	> 100 µM (inactive)	> 100 µM (inactive)	> 100	> 100 µM (inactive)	> 100 µM (inactive)	> 100 µM (inactive)	> 100 µM (inactive)	> 100 µM (inactive)	> 100 µM (inactive)	93.3 µM (inactive)	> 100 µM (inactive)	96.2 µM (inactive)	> 100 µM (inactive)	47.5 µM (inactive)	> 100 µM (inactive)	39.4 µM (inactive)
COc1ccc2c(c1)/c(=C/C#N)c1c3ccccc3[n+](C)n21	3.13 µM (inactive)	7.69 µM (inactive)	2.75 µM (inactive)	8.63 µM (inactive)	5.21 µM (inactive)	20.1	7.16 µM (inactive)	6.14 µM (inactive)	6.87 µM (inactive)	7.62 µM (inactive)	2.24 µM (inactive)	6.9 µM (inactive)	5.97 µM (inactive)	14.5 µM (inactive)	3.3 µM (inactive)	5.58 µM (inactive)	8.69 µM (inactive)	4.13 µM (inactive)	2.04 µM (inactive)
S=c1c2cn[nH]c2nc2scc(-c3ccc(Cl)cc3)n12	14.2 µM (inactive)	> 10 µM (inactive)	12.9 µM (inactive)	14.3 µM (inactive)	22.2 µM (inactive)	10.7	23.6 µM (inactive)	54.6 µM (inactive)	17 µM (inactive)	> 10 µM (inactive)	16.7 µM (inactive)	10.6 µM (inactive)	11.3 µM (inactive)	18.2 µM (inactive)	15.6 µM (inactive)	18.1 µM (inactive)	10.9 µM (inactive)	9.04 µM (inactive)	16.2 µM (inactive)
COc1cc(/C=N/N=C(\N)NO)c([N+](=O)[O-])cc1OC	28.6 µM (inactive)	30.6 µM (inactive)	28.3 µM (inactive)	37.2 µM (inactive)	59.3 µM (inactive)	22.7	79.6 µM (inactive)	73.1 µM (inactive)	41.1 µM (inactive)	53.2 µM (inactive)	30.1 µM (inactive)	69.3 µM (inactive)	24.2 µM (inactive)	26.5 µM (inactive)	27.1 µM (inactive)	> 100 µM (inactive)	36.5 µM (inactive)	47.9 µM (inactive)	41.6 µM (inactive)
COC(=O)C(CNC(=O)/C=C/c1ccc(OC)c(OC)c1)NC(=O)/C=C/c1ccc(OC)c(OC)c1 (stereo not given)	> 100 µM (inactive)	> 100 µM (inactive)	> 100 µM (inactive)	> 100 µM (inactive)	92.3 µM (inactive)	> 100	> 100 µM (inactive)	> 100 µM (inactive)	> 100 µM (inactive)	> 100 µM (inactive)	> 100 µM (inactive)	> 100 µM (inactive)	> 100 µM (inactive)	> 100 µM (inactive)	77.1 µM (inactive)	67.3 µM (inactive)	> 100 µM (inactive)	> 100 µM (inactive)	> 100 µM (inactive)
COc1cc2c3cc1Oc1c(O)c(OC)cc4c1[C@H](Cc1ccc(cc1)Oc1cc(ccc1O)C[C@H]3N(C)CC2)N(C)CC4	5.77 µM (inactive)	12.4 µM (inactive)	9.48 µM (inactive)	23.6 µM (inactive)	17.3 µM (inactive)	9.29	20.9 µM (inactive)	15 µM (inactive)	2.25 µM (inactive)	13.8 µM (inactive)	3.84 µM (inactive)	13.6 µM (inactive)	4.94 µM (inactive)	12.3 µM (inactive)	8.41 µM (inactive)	19.2 µM (inactive)	2.56 µM (inactive)	16.5 µM (inactive)	10.4 µM (inactive)
